Where “and” joins values, the source holds several entries; their conditions need not be identical. Identical values can stand only once.
Test system: Swiss mice, Sarcoma 180 sc, mean tumor weight T/C
Assay: NCI In Vivo Anticancer Drug Screen. Data for tumor model Sarcoma 180 (subcutaneous) in Swiss mice
Settings: endpoint: mean tumor weight, higher = larger tumour
How it was run: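 T/C ratio: treated over vehicle-treated controls, measuring survival or tumor size in transplanted-tumor mice.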

In the case of `C[C@]12CC[C@H](OC3OC(CO)C(O)C(O)C3O)C[C@H]1CC[C@@H]1[C@@H]2CC[C@]2(C)[C@@H](C3=CCOC3=O)CC[C@]12O` (stereo not given in full), the T/C (dose: 0.01 mg/kg/injection, schedule: Q01DX007 (ip), vehicle: carboxymethylcellulose (CMC)) was 60 % of control, the T/C (dose: 0.05 mg/kg/injection, schedule: Q01DX007 (ip), vehicle: carboxymethylcellulose (CMC)) was 40 % of control and the T/C (dose: 0.12 mg/kg/injection, schedule: Q03DX003 (ip), vehicle: carboxymethylcellulose (CMC)) was 81 % of control. For the same compound, the T/C (dose: 0.12 mg/kg/injection, schedule: Q#A X014 (ip), vehicle: carboxymethylcellulose (CMC)) was 99 % of control, the T/C (dose: 0.2 mg/kg/injection, schedule: Q01DX007 (ip), vehicle: carboxymethylcellulose (CMC)) was 46 % of control and the T/C (dose: 0.25 mg/kg/injection, schedule: Q01DX007 (ip), vehicle: saline) was 82 % of control. The T/C (dose: 0.25 mg/kg/injection, schedule: Q01DX007 (ip), vehicle: water) was 86 % of control, the T/C (dose: 0.25 mg/kg/injection, schedule: Q03DX003 (ip), vehicle: carboxymethylcellulose (CMC)) was 75 % of control and the T/C (dose: 0.25 mg/kg/injection, schedule: Q#A X014 (ip), vehicle: carboxymethylcellulose (CMC)) was 57 % of control. The T/C (dose: 0.26 mg/kg/injection, schedule: Q01DX007 (ip), vehicle: saline) was 49 % of control and 51 % of control, the T/C (dose: 0.38 mg/kg/injection, schedule: Q03DX003 (ip), vehicle: carboxymethylcellulose (CMC)) was 105 % of control and 108 % of control and the T/C (dose: 0.5 mg/kg/injection, schedule: Q01DX007 (ip), vehicle: saline) was 55 % of control. For the same compound, the T/C (dose: 0.5 mg/kg/injection, schedule: Q01DX007 (ip), vehicle: water) was 90 % of control, the T/C (dose: 0.5 mg/kg/injection, schedule: Q03DX003 (ip), vehicle: carboxymethylcellulose (CMC)) was 92 % of control and the T/C (dose: 0.5 mg/kg/injection, schedule: Q#A X014 (ip), vehicle: carboxymethylcellulose (CMC)) was 53 % of control. For the same compound, the T/C (dose: 0.6 mg/kg/injection, schedule: Q01DX007 (ip), vehicle: saline) was 34 % of control and 57 % of control, the T/C (dose: 0.8 mg/kg/injection, schedule: Q01DX007 (ip), vehicle: carboxymethylcellulose (CMC)) was 27 % of control and the T/C (dose: 0.9 mg/kg/injection, schedule: Q01DX007 (ip), vehicle: saline) was 47 % of control and 51 % of control. The T/C (dose: 0.96 mg/kg/injection, schedule: Q01DX007 (ip), vehicle: saline) was 13 % of control, the T/C (dose: 1.0 mg/kg/injection, schedule: Q01DX007 (ip), vehicle: carboxymethylcellulose (CMC)) was 28 % of control and the T/C (dose: 1.0 mg/kg/injection, schedule: Q01DX007 (ip), vehicle: saline) was 40 % of control. The T/C (dose: 1.0 mg/kg/injection, schedule: Q01DX007 (ip), vehicle: water) was 40 % of control, the T/C (dose: 1.0 mg/kg/injection, schedule: Q#A X014 (ip), vehicle: carboxymethylcellulose (CMC)) was 35 % of control and the T/C (dose: 1.3 mg/kg/injection, schedule: Q01DX007 (ip), vehicle: saline) was 32 % of control and 38 % of control. For the same compound, the T/C (dose: 1.9 mg/kg/injection, schedule: Q01DX007 (ip), vehicle: saline) was 13 % of control, the T/C (dose: 2.0 mg/kg/injection, schedule: Q01DX007 (ip), vehicle: saline) was 22 % of control and 43 % of control and the T/C (dose: 10.4 mg/kg/injection, schedule: Q01DX007 (oral), vehicle: carboxymethylcellulose (CMC)) was 89 % of control. For the same compound, the T/C (dose: 16.0 mg/kg/injection, schedule: Q01DX007 (oral), vehicle: carboxymethylcellulose (CMC)) was 95 % of control, the T/C (dose: 24.0 mg/kg/injection, schedule: Q01DX007 (oral), vehicle: carboxymethylcellulose (CMC)) was 110 % of control and the T/C (dose: 36.0 mg/kg/injection, schedule: Q01DX007 (oral), vehicle: carboxymethylcellulose (CMC)) was 74 % of control. For the same compound, the T/C (dose: 54.0 mg/kg/injection, schedule: Q01DX007 (oral), vehicle: carboxymethylcellulose (CMC)) was 101 % of control, the T/C (dose: 80.0 mg/kg/injection, schedule: Q01DX007 (oral), vehicle: carboxymethylcellulose (CMC)) was 105 % of control and the T/C (dose: 81.0 mg/kg/injection, schedule: Q01DX007 (oral), vehicle: carboxymethylcellulose (CMC)) was 100 % of control. For the same compound, the T/C (dose: 120.0 mg/kg/injection, schedule: Q01DX007 (oral), vehicle: carboxymethylcellulose (CMC)) was 91 % of control, the T/C (dose: 150.0 mg/kg/injection, schedule: Q01DX007 (oral), vehicle: carboxymethylcellulose (CMC)) was 82 % of control and the T/C (dose: 160.0 mg/kg/injection, schedule: Q01DX007 (oral), vehicle: carboxymethylcellulose (CMC)) was 85 % of control. For the same compound, the T/C (dose: 300.0 mg/kg/injection, schedule: Q01DX007 (oral), vehicle: carboxymethylcellulose (CMC)) was 97 % of control, the T/C (dose: 500.0 mg/kg/injection, schedule: Q01DX007 (oral), vehicle: carboxymethylcellulose (CMC)) was 96 % of control and the T/C (dose: 15.0 micrograms/kg/injection, schedule: Q01DX007 (ip), vehicle: saline) was 73 % of control and 89 % of control. For the same compound, the T/C (dose: 120.0 micrograms/kg/injection, schedule: Q01DX007 (ip), vehicle: saline) was 65 % of control and 77 % of control, the T/C (dose: 125.0 micrograms/kg/injection, schedule: Q01DX007 (ip), vehicle: carboxymethylcellulose (CMC)) was 85 % of control and 99 % of control and the T/C (dose: 240.0 micrograms/kg/injection, schedule: Q01DX007 (ip), vehicle: saline) was 73 % of control and 84 % of control. The T/C (dose: 250.0 micrograms/kg/injection, schedule: Q01DX007 (ip), vehicle: carboxymethylcellulose (CMC)) was 72 % of control and 79 % of control, the T/C (dose: 500.0 micrograms/kg/injection, schedule: Q01DX007 (ip), vehicle: carboxymethylcellulose (CMC)) was 47 % of control and 62 % of control and the T/C (dose: 960.0 micrograms/kg/injection, schedule: Q01DX007 (ip), vehicle: saline) was 33 % of control. The T/C (dose: 2000.0 micrograms/kg/injection, schedule: Q01DX007 (ip), vehicle: carboxymethylcellulose (CMC)) was 68 % of control.

With `COC(=O)c1cccc2c[n+]3c(cc12)-c1[nH]c2cc(OC)ccc2c1CC3` the T/C (dose: 10.0 mg/kg/injection, schedule: Q01DX007 (ip), vehicle: other) was 70 % of control, the T/C (dose: 50.0 mg/kg/injection, schedule: Q01DX007 (ip), vehicle: other) was 73 % of control and the T/C (dose: 200.0 mg/kg/injection, schedule: Q01DX007 (ip), vehicle: other) was 74 % of control.

In the case of `COC(=O)c1cc([N+](=O)[O-])cc([N+](=O)[O-])c1Cl`, the T/C (dose: 6.0 mg/kg/injection, schedule: Q01DX007 (ip), vehicle: methylcellulose (MC)) was 91 % of control, the T/C (dose: 12.0 mg/kg/injection, schedule: Q01DX007 (ip), vehicle: methylcellulose (MC)) was 111 % of control and the T/C (dose: 25.0 mg/kg/injection, schedule: Q01DX007 (ip), vehicle: methylcellulose (MC)) was 86 % of control.

In the case of `C(=N\N(c1ccccc1)c1ccccc1)/C(=C/c1ccccc1)c1ccccc1`, the T/C (dose: 125.0 mg/kg/injection, schedule: Q01DX007 (ip), vehicle: carboxymethylcellulose (CMC)) was 85 % of control, the T/C (dose: 250.0 mg/kg/injection, schedule: Q01DX007 (ip), vehicle: carboxymethylcellulose (CMC)) was 92 % of control and the T/C (dose: 500.0 mg/kg/injection, schedule: Q01DX007 (ip), vehicle: carboxymethylcellulose (CMC)) was 102 % of control.
